Results taken from the NIST ThermoML archive (doi:10.1021/acs.jced.8b00643).
± gives the expanded uncertainty stated by the source.

What was measured:
[1] = for vapor or sublimation pressure: Transpiration method
[2] = Molar enthalpy of transition or fusion; settings: Crystal; DSC

O=C1NCCCO1 [tetrahydro-1,3-oxazin-2-one]
Settings	mass density [kg/m3]
[1], 293 K, 101.33 kPa, Crystal, Pycnometric method	1490 ± 20

[1]
Settings	Triple point temperature [K]	vapor or sublimation pressure [kPa]
327.7 K, Crystal	–	0.00023 ± 2e-05
332.7 K, Crystal	–	0.00039 ± 3e-05
337.7 K, Crystal	–	0.00061 ± 5e-05
342.7 K, Crystal	–	0.001 ± 7e-05
345.7 K, Crystal	–	0.00134 ± 0.0001
348.6 K, Crystal	–	0.00167 ± 0.00012
352.6 K, Crystal	–	0.0024 ± 0.00017
358 K, Liquid	–	0.00409 ± 0.00027
361.3 K, Liquid	–	0.00517 ± 0.00036
365.3 K, Liquid	–	0.00677 ± 0.00046
368 K, Liquid	–	0.00807 ± 0.00055
370.2 K, Liquid	–	0.0095 ± 0.00063
372.8 K, Liquid	–	0.01116 ± 0.00073
377.4 K, Liquid	–	0.01498 ± 0.00098
380.3 K, Liquid	–	0.01771 ± 0.0011
382.2 K, Liquid	–	0.02005 ± 0.0013
385.1 K, Liquid	–	0.02395 ± 0.0015
Crystal, DSC	355.3 ± 0.9	–

Settings	Molar enthalpy of transition or fusion [kcal/mol]
[2]	3.66 ± 0.263
